≈ marks a conversion by molar mass, not a printed value. Like-named read-outs stand apart in the source and are kept apart here. Numbered stars: 1 amine (or outer) side, 2 acyl side, 3 side chain; on linkers, the order of the positions; unused ones are H or OH. Bridge positions count the residues as written; N and C are the ends. Square brackets hold non-standard residues; d marks the D form. Peptide text beside a SMILES is read from it. * marks the point of attachment. X7 = C[C@@H](Oc1ccc([C@H](N[*:1])C(=O)[*:2])cc1)[C@](O)(/C=C/C(=O)[*:3])CNCCCCCCNC(=O)OC(C)(C)C; X6 = C[C@@H](Oc1ccc([C@H](N[*:1])C(=O)[*:2])cc1)[C@](O)(/C=C/C(=O)[*:3])CNCCCNC(=O)OC(C)(C)C; X4 = CCCCOC[C@@](O)(/C=C/C(=O)[*:3])[C@@H](C)Oc1ccc([C@H](N[*:1])C(=O)[*:2])cc1; X2 = C[C@@H](Oc1ccc([C@H](N[*:1])C(=O)[*:2])cc1)[C@](O)(/C=C/C(=O)[*:3])CBr; X5 = C[C@@H](Oc1ccc([C@H](N[*:1])C(=O)[*:2])cc1)[C@](O)(/C=C/C(=O)[*:3])CO; Pentanoyl(2R-Me,3R-OH,4-Me) = CC(C)[C@@H](O)[C@@H](C)C(=O)*; d(aIle) = CC[C@H](C)[C@@H](N)C(=O)O; d(aThr) = C[C@@H](O)[C@@H](N)C(=O)O; NMeF = CN[C@@H](Cc1ccccc1)C(=O)O
Experiments:
Sal-resistant mutants [1] = conditions: Ebright et al., WO/2012/129173; cited from earlier work
[2] = system: Neisseria gonorrhoeae ATCC19424; assay: Antibacterial activity, broth microdilution; type: cell-based; conditions: Neisseria gonorrhoeae, ATCC19424; minimal concentration resulting in ≧50% inhibition of bacterial growth
Source text: (§1) Antibacterial activity was quantified using broth microdilution [Clinical and Laboratory Standards Institute (CLSI/NCCLS), Methods for Dilution Antimicrobial Susceptibility Tests for Bacteria That Grow Aerobically; Approved Standard, Eighth Edition. CLIS Document M07-A8 (CLIS, Wayne Pa.), 2009]. Assays with Enterobacter cloacae ATCC13047, Pseudomonas aeruginosa ATCC10145, and Escherichia coli D21f2to1C, employed a starting cell density of 2-5×10^5 cfu/ml, Mueller Hinton II cation adjusted broth (BD Biosciences, Inc.), and an air atmosphere. Assays with Haemophilus influenzae ATCC49247 and Neisseria gonorrhoeae ATCC19424 employed a starting cell density of 2-5×10^5 cfu/ml, Haemophilus Test Medium broth (Barry et al., 1993) and a 5% CO2/95% air atmosphere. MIC50 was defined as the minimal concentration resulting in ≧50% inhibition of bacterial growth.

[3] = system: Enterobacter cloacae ATCC13047; assay: Antibacterial activity, broth microdilution; type: cell-based; conditions: Enterobacter cloacae, ATCC13047; minimal concentration resulting in ≧50% inhibition of bacterial growth; read-out: MIC50 Enterobacter cloacae ATCC 13047
Source text: as §1

[4] = system: Escherichia coli D21f2tolC; assay: Antibacterial activity, broth microdilution; type: cell-based; conditions: for MIC50: Escherichia coli, D21F2TOLC, read-out: MIC50 Escherichia coli D21f2tolC
Source text: as §1

[5] = system: Haemophilus influenzae ATCC49247; assay: Antibacterial activity, broth microdilution; type: cell-based; conditions: Haemophilus influenzae, ATCC49247; minimal concentration resulting in ≧50% inhibition of bacterial growth
Source text: as §1

[6] = system: Pseudomonas aeruginosa ATCC10145; assay: Antibacterial activity, broth microdilution; type: cell-based; conditions: Pseudomonas aeruginosa, ATCC10145; minimal concentration resulting in ≧50% inhibition of bacterial growth
Source text: as §1

[7] = system: Vero E6 cells (ATCC CRL1586); assay: Cytotoxicity to mammalian cells in culture (CellTiter96 assay); type: cell-based
Source text: MICs for mammalian cells (Vero E6) in culture were quantified using CellTiter96 assay (Promega. Inc.; procedures as specified by the manufacturer).

[8] = molecular target: T1, Staphylococcus aureus RNAP (Staphylococcus aureus, UniProt P47768+Q2G0N5); assay: Radiochemical RNAP assay, Staphylococcus aureus RNAP; type: biochemical
T1 construct: made in house
T1 sequence (Q2G0N5 whole entry): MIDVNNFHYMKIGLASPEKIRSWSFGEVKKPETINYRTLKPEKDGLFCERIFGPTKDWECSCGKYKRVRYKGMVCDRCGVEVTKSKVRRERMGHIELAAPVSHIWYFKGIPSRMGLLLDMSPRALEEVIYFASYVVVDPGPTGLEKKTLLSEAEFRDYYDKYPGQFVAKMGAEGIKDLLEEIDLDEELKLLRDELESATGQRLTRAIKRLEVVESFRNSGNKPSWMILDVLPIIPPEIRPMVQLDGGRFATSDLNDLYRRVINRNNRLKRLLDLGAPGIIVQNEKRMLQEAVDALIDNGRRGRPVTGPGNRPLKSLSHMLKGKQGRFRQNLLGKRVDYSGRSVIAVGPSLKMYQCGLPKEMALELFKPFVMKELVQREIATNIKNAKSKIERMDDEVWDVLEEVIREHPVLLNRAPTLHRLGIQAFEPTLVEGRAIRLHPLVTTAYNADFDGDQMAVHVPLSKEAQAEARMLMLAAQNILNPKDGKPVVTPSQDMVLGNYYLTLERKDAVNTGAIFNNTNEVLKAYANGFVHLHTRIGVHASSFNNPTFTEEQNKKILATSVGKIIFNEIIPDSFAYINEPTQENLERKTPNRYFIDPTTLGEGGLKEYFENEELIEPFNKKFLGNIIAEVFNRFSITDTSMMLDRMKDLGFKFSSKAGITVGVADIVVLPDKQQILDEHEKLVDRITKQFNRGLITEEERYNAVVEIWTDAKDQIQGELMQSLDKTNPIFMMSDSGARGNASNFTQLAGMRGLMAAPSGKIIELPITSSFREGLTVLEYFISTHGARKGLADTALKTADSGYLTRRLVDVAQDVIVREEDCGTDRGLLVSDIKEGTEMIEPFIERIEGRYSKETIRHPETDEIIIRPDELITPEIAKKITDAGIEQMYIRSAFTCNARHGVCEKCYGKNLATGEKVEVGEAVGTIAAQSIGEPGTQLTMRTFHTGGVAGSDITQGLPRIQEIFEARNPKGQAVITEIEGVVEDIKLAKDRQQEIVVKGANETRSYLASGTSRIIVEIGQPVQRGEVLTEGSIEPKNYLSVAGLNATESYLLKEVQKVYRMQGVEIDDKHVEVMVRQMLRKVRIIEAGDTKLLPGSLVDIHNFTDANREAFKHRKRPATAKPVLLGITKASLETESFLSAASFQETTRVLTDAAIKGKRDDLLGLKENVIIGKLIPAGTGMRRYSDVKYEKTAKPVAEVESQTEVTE
T1 sequence (P47768 whole entry): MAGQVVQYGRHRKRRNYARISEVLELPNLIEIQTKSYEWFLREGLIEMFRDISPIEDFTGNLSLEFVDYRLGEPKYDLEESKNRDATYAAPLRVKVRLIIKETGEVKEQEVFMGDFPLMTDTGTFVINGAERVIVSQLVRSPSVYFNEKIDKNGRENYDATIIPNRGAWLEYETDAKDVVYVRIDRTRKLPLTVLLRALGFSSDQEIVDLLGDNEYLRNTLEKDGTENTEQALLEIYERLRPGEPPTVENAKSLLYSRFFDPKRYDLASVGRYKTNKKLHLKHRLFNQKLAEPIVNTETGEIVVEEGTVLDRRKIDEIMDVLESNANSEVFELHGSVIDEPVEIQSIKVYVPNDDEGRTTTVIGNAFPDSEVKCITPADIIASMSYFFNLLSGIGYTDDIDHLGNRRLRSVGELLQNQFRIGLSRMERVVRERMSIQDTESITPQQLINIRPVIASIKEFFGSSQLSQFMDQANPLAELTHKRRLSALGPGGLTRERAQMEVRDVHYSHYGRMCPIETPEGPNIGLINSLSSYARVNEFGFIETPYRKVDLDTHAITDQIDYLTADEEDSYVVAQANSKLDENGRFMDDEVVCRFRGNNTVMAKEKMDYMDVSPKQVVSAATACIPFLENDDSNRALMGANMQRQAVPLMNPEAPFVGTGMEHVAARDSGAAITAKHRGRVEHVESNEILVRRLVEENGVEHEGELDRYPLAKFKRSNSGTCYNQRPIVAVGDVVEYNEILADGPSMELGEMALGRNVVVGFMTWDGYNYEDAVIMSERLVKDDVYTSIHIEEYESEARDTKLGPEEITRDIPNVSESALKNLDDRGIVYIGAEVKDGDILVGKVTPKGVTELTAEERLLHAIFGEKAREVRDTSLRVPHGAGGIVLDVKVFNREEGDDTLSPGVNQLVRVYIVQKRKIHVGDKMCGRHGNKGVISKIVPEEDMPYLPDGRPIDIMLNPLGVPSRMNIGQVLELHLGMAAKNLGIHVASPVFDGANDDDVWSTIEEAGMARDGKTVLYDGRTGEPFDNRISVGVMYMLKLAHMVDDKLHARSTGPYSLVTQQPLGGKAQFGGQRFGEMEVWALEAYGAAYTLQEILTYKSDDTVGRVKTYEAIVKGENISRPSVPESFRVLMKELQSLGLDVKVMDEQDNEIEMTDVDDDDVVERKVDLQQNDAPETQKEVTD
T1 sequence (Q2FW32 whole entry, further chain): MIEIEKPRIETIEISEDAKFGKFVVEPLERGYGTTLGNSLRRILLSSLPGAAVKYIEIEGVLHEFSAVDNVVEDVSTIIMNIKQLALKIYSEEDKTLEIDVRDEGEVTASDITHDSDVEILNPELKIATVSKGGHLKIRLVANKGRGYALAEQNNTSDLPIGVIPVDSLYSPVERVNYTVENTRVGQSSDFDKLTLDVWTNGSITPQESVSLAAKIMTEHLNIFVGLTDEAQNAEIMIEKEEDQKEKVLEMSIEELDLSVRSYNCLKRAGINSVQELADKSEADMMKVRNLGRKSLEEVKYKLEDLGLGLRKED
T1 sequence (P0A0J0 whole entry, further chain): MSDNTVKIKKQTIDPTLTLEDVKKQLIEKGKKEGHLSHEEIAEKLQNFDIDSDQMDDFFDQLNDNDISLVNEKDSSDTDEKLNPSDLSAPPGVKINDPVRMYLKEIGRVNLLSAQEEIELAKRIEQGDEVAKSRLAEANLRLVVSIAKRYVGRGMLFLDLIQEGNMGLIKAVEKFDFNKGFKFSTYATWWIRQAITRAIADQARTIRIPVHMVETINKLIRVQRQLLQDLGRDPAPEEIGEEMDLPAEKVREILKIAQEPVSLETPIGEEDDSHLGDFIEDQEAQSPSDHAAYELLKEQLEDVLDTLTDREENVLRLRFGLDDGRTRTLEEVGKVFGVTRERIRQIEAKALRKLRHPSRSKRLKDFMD
Description: (§2) Radiochemical RNAP assays with Escherichia coli RNAP and Staphylococcus aureus RNAP were performed as follows: Reaction mixtures contained (10 μl): 0-100 μM test compound, bacterial RNAP holoenzyme [75 nM Escherichia coli RNAP holoenzyme (prepared as in Mukhopadhyay et al., Meths. Enzymol. 371:144-159, 2003) or 75 nM Staphylococcus aureus RNAP core enzyme and 300 nM Staphylococcus aureus σ^A (prepared as in Srivastava et al., Curr. Opin. Microbiol. 14:532-543, 2011)], 20 nM DNA fragment N25-lacUV5-14 [positions −100 to −1 of the bacteriophage T5 N25 promoter followed by positions +1 to +29 of the lacUV5(+10A; +15C) promoter; prepared by PCR amplification of a synthetic nontemplate-strand oligodeoxyribonucleotide], 0.5 mM ApA, 100 μM □[α^32P]UTP (0.2 Bq/fmol), 100 μM ATP, and 100 μM GTP in TB (50 mM Tris-HCl, pH 7.9, 100 mM KCl, 10 mM MgCl2, 1 mM DTT, 100 μg/ml bovine serum albumin, and 5% glycerol). […] Products were applied to 7 M urea 15% polyacrylamide (19:1 acrylamide:bisacrylamide) slab gels (Bio-Rad), electrophoresed in TBE (90 mM Tris-borate, pH 8.0, and 2 mM EDTA), and analyzed by storage-phosphor scanning (Typhoon; GE Healthcare, Inc.).
(§3) Half-maximal inhibitory concentrations (IC50s) were calculated by non-linear regression in SigmaPlot (SPSS, Inc.).

[9] = molecular target: T2, Escherichia coli RNAP holoenzyme (Escherichia coli, UniProt P0A8T7+P0A8V2); assay: Radiochemical RNAP assay, Escherichia coli RNAP; type: biochemical
T2 construct: made in house
Description: as §2, §3

[10] = system: human RNAP I, II, and III; assay: Radiochemical assay with human RNAP I, II, and III (HeLaScribe Nuclear Extract); type: biochemical
Description: Radiochemical assays with human RNAP I, II, and III were performed essentially as described [Sawadogo and Roeder, Cell 43:165-75, 1985]. Reaction mixtures contained (20 μl): 0-100 μM test compound, 8 U HeLaScribe Nuclear Extract (Promega, Inc.), 1 μg human placental DNA (Sigma-Aldrich), 400 μM ATP, 400 μM [α^32P]UTP (0.11 Bq/fmol), 400 μM CTP, 400 μM GTP, 50 mM Tris-HCl, pH 8.0, 7 mM HEPES-NaOH, 70 mM (NH4)2SO4, 50 mM KCl, 12 mM MgCl2, 5 mM DTT, 0.1 mM EDTA, 0.08 mM phenylmethylsulfonyl fluoride, and 16% glycerol. Reaction components other than DNA and NTPs were pre-incubated 10 min at 30° C., DNA was added and reaction mixtures were incubated 15 min at 30° C., NTPs were added and reaction mixtures were incubated 60 min at 30° C. Reaction mixtures were spotted on DE81 filter discs (Whatman, Inc.; pre-wetted with water) and incubated 1 min at room temperature. Filters were washed with 3×3 ml Na2HPO4, 2×3 ml water, and 3 ml ethanol, using a filter manifold (Hoefer, Inc.). Filters were placed in scintillation vials containing 10 ml Scintiverse BD Cocktail (Thermo Fisher, Inc.), and radioactivity was quantified by scintillation counting (LS6500; Beckman-Coulter, Inc.).
as §3

[11] = molecular target: Escherichia coli RNAP σ70 holoenzyme (Escherichia coli, UniProt P0A8T7+P0A8V2); assay: Fluorescence-detected RNAP assay, Escherichia coli RNAP; type: biochemical; conditions: refers to Table 1
Description: Fluorescence-detected RNAP assays with Escherichia coli RNAP were performed by a modification of the procedure of Kuhlman et al., Anal. Biochem. 324:183-190, 2004]. Reaction mixtures contained (20 μl): 0-100 nM test compound, 75 nM Escherichia coli RNAP σ^70 holoenzyme, 20 nM 384 bp DNA fragment containing the bacteriophage T4 N25 promoter, 100 μM ATP, 100 μM GTP, 100 μM UTP, 100 μM CTP, 50 mM Tris-HCl, pH 8.0, 100 mM KCl, 10 mM MgCl2, 1 mM DTT, 10 μg/ml bovine serum albumin, and 5.5% glycerol. Reaction components other than DNA and NTPs were pre-incubated for 10 min at 37° C. Reactions were carried out by addition of DNA and incubation for 5 min at 37° C., followed by addition of NTPs and incubation for 60 min at 37° C. DNA was removed by addition of 1 μl 5 mM CaCl2 and 2 U DNasel (Ambion, Inc.), followed by incubation for 90 min at 37° C. RNA was quantified by addition of 100 μl RiboGreen RNA Quantitation Reagent (Invitrogen, Inc.; 1:500 dilution in Tris-HCl, pH 8.0, 1 mM EDTA), followed by incubation for 10 min at 25° C., followed by measurement of fluorescence intensity [excitation wavelength=485 nm and emission wavelength=535 nm; QuantaMaster QM1 spectrofluorometer (PTI, Inc.)].
as §3

Sal-resistant mutants [12] = assay: Cross-resistance of Sal-resistant mutants to other RNAP inhibitors; type: cell-based; conditions: disclosed herein

**Q.** For `ONC(=Nc1ccccc1)c1cccc(C(F)(F)F)c1` [CBR703], which “cross-resistance of Sal-resistant mutants to the compound” value (Sal-resistant mutants [1]) is on record?
**A.** not cross-resistant

**Q.** What does the source list for `CC[C@H](C)[C@H]1NC(=O)[C@@H](NC(=O)[C@H](C)[C@H](O)C(C)C)[C@@H](C)OC(=O)[C@@H]2COC(=O)CNC(=O)/C=C/[C@](O)(CBr)[C@@H](C)Oc3ccc(cc3)[C@H](NC1=O)C(=O)N(C)[C@@H](Cc1ccccc1)C(=O)N[C@H]([C@@H](C)O)C(=O)N2` [Sal-Br (3), Sal-Br] ({Pentanoyl(2R-Me,3R-OH,4-Me)}-T[d(aIle)][X2][NMeF][d(aThr)]S; ester 1-C; linker 3-6 via G)?
**A.** MIC50 [2]: 1.56 µg/mL (≈ 1.42 µM); MIC50 [3]: 1.56 µg/mL (≈ 1.42 µM); MIC50 [4]: 0.049 µg/mL (≈ 0.0445 µM); antibacterial activity ([4]; refers to Table 2 (E. coli D21f2tolC and Enterobacter cloacae)): essentially full; MIC50 [5]: 6.25 µg/mL (≈ 5.68 µM); MIC50 [6]: 50 µg/mL (≈ 45.4 µM); MIC50 Vero E6 ATCC CRL1586 ([7]; Table 3): >100 µg/mL; MIC Vero E6 cells ([7]; growth of mammalian cells in culture): > 50 µg/mL; IC50 [8]: 540 ± 40 nM; IC50 [9]: 780 ± 50 nM; IC50 ([10]; radiochemical assay, read-out: IC50 human RNAP I, II, and III): > 100000 nM; IC50 ([10]; read-out: IC50 human RNAP I/II/III): > 100000 nM; RNAP-inhibitory activity [11]: essentially full

**Q.** Which results are given for `CC[C@H](C)[C@H]1NC(=O)[C@@H](NC(=O)[C@H](C)[C@H](O)C(C)C)[C@@H](C)OC(=O)[C@@H]2COC(=O)CNC(=O)/C=C/[C@](O)(CNCCCNC(=O)OC(C)(C)C)[C@@H](C)Oc3ccc(cc3)[C@H](NC1=O)C(=O)N(C)[C@@H](Cc1ccccc1)C(=O)N[C@H]([C@@H](C)O)C(=O)N2` [Sal-NH(CH2)3NHBoc (7), Sal-NH(CH2)3NHBoc] ({Pentanoyl(2R-Me,3R-OH,4-Me)}-T[d(aIle)][X6][NMeF][d(aThr)]S; ester 1-C; linker 3-6 via G)?
**A.** MIC50 [3]: 100 µg/mL (≈ 83.7 µM); MIC50 [4]: 1.56 µg/mL (≈ 1.31 µM)

**Q.** What does the source list for `CC[C@H](C)[C@H]1NC(=O)[C@@H](NC(=O)[C@H](C)[C@H](O)C(C)C)[C@@H](C)OC(=O)[C@@H]2COC(=O)CNC(=O)/C=C/[C@](O)(CNCCCCCCNC(=O)OC(C)(C)C)[C@@H](C)Oc3ccc(cc3)[C@H](NC1=O)C(=O)N(C)[C@@H](Cc1ccccc1)C(=O)N[C@H]([C@@H](C)O)C(=O)N2` [Sal-NH(CH2)6NHBoc (9), Sal-NH(CH2)6NHBoc] ({Pentanoyl(2R-Me,3R-OH,4-Me)}-T[d(aIle)][X7][NMeF][d(aThr)]S; ester 1-C; linker 3-6 via G)?
**A.** MIC50 [3]: 25 µg/mL (≈ 20.2 µM); MIC50 [4]: 0.78 µg/mL (≈ 0.631 µM)

**Q.** With `CCCCOC[C@@]1(O)/C=C/C(=O)NCC(=O)OC[C@@H]2NC(=O)[C@@H]([C@@H](C)O)NC(=O)[C@H](Cc3ccccc3)N(C)C(=O)[C@@H](NC(=O)[C@@H]([C@@H](C)CC)NC(=O)[C@@H](NC(=O)[C@H](C)[C@H](O)C(C)C)[C@@H](C)OC2=O)c2ccc(cc2)O[C@@H]1C` [Sal-OBu A (5A), Sal-OBu A] ({Pentanoyl(2R-Me,3R-OH,4-Me)}-T[d(aIle)][X4][NMeF][d(aThr)]S; ester 1-C; linker 3-6 via G) as the compound, how does the MIC50 [3] read?
**A.** 12.5 µg/mL (≈ 11.4 µM)

**Q.** What about the MIC50 [4] of the same compound?
**A.** 1.56 µg/mL (≈ 1.43 µM)

**Q.** With `CC[C@H](C)[C@H]1NC(=O)[C@@H](NC(=O)[C@H](C)[C@H](O)C(C)C)[C@@H](C)OC(=O)[C@@H]2COC(=O)CNC(=O)/C=C/[C@](O)(CO)[C@@H](C)Oc3ccc(cc3)[C@H](NC1=O)C(=O)N(C)[C@@H](Cc1ccccc1)C(=O)N[C@H]([C@@H](C)O)C(=O)N2` [Sal-OH (4), Sal-OH] ({Pentanoyl(2R-Me,3R-OH,4-Me)}-T[d(aIle)][X5][NMeF][d(aThr)]S; ester 1-C; linker 3-6 via G) as the compound, how does the MIC50 [3] read?
**A.** 25 µg/mL (≈ 24.1 µM)

**Q.** And the MIC50 [4]?
**A.** 0.78 µg/mL (≈ 0.751 µM)

**Q.** With `CNC(=O)[C@@H](C)[C@H]1C(=O)/C(=C(O)/C=C/C(C)=C/[C@@H](C)[C@H]2O[C@@]3(C)O[C@H](C=C[C@@]34CO4)[C@@H]2C)C(=O)N1[C@@H]1CC[C@H](O)[C@H](C)O1` [streptolydigin] as the compound, how does the “cross-resistance of Sal-resistant mutants with the compound” value (“cross-resistance … with the compound” below) (Sal-resistant mutants [12]) read?
**A.** do not exhibit cross-resistance

**Q.** Which “cross-resistance … with the compound” value (Sal-resistant mutants [12]) does the source give for lipiarmycin here?
**A.** do not exhibit cross-resistance

**Q.** For myxopyronin, which “cross-resistance … with the compound” value (Sal-resistant mutants [12]) is on record?
**A.** do not exhibit cross-resistance
